US10047051B2, “Substituted pyridines and method of use” (AbbVie S.á{acute over (.)}r.l., priority 2015, dated 2018)

Key:
CFTR ΔF508 mutant = target: T1, CFTR ΔF508 mutant (Homo sapiens, UniProt P13569, DEL508-508); experiment: YFP-halide influx assay for the CFTR-ΔF508 mutation (CFBE41o- cells); assay type: cell-based; settings: forskolin 10.67 μM; for EC50: from (1−F/F0) vs concentration plot
T1 construct: expressed in transfected cells; host or cells: CFBE41o- cells, adenoviral transduction
Excerpt: The YFP halide influx assay measured the functionality of the cystic fibrosis Transmembrane Conductance regulator (CFTR) channels in the cystic fibrosis bronchial epithelium cell line CFBE41o-. The assay was used to evaluate the capacity of compounds to increase the open probability of existing CFTR channels in the membrane. It makes use of the observation that the yellow fluorescent protein (YFP) variant YFP H148Q, I152L, F47L has its fluorescence substantially quenched by halide ions like Cl^− and I^− (Galietta, L. J. V., Haggie, P. M., Verkman, A. S., 2001. Green fluorescent protein-based halide indicators with improved chloride and iodide affinities. FEBS Lett. 499, 220-224. doi:10.1016/S0014-5793(01)02561-3; Nagai, T., Ibata, K., Park, E. S., Kubota, M., Mikoshiba, K., Miyawaki, A., 2002. A variant of yellow fluorescent protein with fast and efficient maturation for cell-biological applications. Nat. Biotechnol. 20, 87-90. doi: 10.1038/nbt0102-87).
For this purpose, CFBE41o-cells were seeded in 384 well plates (3000 CFBE cells/well). One day after seeding, the CFBE cells were transduced with adenoviral vectors that direct the expression of the CFTR ΔF508 mutant and of the YFP reporter. Cells were incubated at 27° C., 5% CO2 for 24 hours so as to allow for the proper folding and migration to the membrane of the CFTR channel or treated with a CFTR modulator during 24 hours at 37° C.
The I-induced quenching of fluorescence was recorded on an immediately after injection of iodide for 2 minutes on an FDSS/μCell (Hamamatsu). The capacity of a compound to increase the channel opening was directly correlated with the decrease in fluorescence, and was expressed as (1−(fluorescence after 36 seconds (F)/fluorescence before injection (F0))) and an EC50 was derived from a (1−F/F0) vs compound concentration plot.

CFTR G551D mutant = target: T2, CFTR G551D mutant (Homo sapiens, UniProt P13569, G551D); experiment: YFP-halide influx assay for the CFTR-G551D mutation (HEK293 cells); assay type: cell-based; settings: forskolin 10.67 μM
T2 construct: expressed in transfected cells; host or cells: HEK293 cells, reverse transfection with plasmids
T2 sequence (P13569 whole entry G551D): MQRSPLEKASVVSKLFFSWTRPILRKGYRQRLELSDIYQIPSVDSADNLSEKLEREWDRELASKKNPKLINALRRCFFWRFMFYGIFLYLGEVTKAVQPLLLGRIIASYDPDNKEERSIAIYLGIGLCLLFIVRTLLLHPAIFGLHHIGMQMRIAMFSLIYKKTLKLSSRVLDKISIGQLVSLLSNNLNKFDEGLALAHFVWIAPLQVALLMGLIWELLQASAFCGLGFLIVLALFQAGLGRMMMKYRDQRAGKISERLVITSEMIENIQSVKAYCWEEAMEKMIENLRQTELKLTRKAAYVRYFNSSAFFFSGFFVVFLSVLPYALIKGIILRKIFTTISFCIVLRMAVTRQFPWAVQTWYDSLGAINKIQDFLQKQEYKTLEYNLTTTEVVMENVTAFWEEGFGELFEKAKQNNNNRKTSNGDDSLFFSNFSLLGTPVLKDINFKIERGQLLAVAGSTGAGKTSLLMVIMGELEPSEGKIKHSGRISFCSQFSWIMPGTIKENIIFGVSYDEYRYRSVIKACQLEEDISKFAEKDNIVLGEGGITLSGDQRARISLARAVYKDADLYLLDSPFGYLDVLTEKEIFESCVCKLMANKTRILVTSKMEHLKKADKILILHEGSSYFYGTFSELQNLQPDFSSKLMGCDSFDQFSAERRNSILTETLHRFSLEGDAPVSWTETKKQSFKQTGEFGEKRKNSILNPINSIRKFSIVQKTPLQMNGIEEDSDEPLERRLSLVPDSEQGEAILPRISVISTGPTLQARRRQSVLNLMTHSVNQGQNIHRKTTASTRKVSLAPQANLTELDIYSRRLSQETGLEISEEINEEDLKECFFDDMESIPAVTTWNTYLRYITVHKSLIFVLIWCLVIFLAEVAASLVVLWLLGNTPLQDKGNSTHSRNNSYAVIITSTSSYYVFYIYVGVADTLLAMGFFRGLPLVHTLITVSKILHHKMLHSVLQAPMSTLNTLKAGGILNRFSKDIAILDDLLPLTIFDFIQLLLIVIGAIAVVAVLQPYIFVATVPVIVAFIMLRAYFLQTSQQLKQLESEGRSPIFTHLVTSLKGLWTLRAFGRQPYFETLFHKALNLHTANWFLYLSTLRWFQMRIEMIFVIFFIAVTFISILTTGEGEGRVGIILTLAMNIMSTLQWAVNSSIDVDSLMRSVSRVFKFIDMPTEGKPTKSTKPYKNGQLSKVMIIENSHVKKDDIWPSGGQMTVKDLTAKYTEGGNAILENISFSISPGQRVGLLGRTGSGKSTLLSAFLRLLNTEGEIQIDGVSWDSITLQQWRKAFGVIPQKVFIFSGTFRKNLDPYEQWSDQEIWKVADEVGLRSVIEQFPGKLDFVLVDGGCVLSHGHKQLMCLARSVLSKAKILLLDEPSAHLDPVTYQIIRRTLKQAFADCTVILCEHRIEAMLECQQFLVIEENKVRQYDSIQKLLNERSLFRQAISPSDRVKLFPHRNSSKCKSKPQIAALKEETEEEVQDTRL
Excerpt: The YFP halide influx assay measured the functionality of the cystic fibrosis Transmembrane Conductance regulator (CFTR) channels. The assay was used to evaluate the capacity of compounds to increase the channel opening of existing mutant CFTR channels in the membrane. It makes use of the observation that the yellow fluorescent protein (YFP) variant YFP H148Q, I152L, F47L has its fluorescence substantially quenched by halide ions like Cl^− and I^− (Galietta, L. J. V., Haggie, P. M., Verkman, A. S., 2001. Green fluorescent protein-based halide indicators with improved chloride and iodide affinities. FEBS Lett. 499, 220-224. doi:10.1016/S0014-5793(01)02561-3).
For this purpose, HEK293-cells were seeded in 96 well plates. During seeding, the cells were reverse-transfected with plasmid vectors that direct the expression of the CFTR G551D mutant and of the YFP reporter. Cells were incubated at 37° C., 5% CO2 for 24 hours so as to allow for sufficient expression of the CFTR protein.
The I^−-induced quenching of fluorescence was recorded immediately after injection of I^− for 7 seconds. The capacity of a compound to increase the channel opening was directly correlated with the decrease in fluorescence, and was expressed as (1−(fluorescence after 7 seconds (F)/fluorescence before injection (F0))) and an EC50 was derived from a (1−F/F0) vs compound concentration plot.

T1 sequence (P13569 with tags, fused parts or gaps DEL508-508): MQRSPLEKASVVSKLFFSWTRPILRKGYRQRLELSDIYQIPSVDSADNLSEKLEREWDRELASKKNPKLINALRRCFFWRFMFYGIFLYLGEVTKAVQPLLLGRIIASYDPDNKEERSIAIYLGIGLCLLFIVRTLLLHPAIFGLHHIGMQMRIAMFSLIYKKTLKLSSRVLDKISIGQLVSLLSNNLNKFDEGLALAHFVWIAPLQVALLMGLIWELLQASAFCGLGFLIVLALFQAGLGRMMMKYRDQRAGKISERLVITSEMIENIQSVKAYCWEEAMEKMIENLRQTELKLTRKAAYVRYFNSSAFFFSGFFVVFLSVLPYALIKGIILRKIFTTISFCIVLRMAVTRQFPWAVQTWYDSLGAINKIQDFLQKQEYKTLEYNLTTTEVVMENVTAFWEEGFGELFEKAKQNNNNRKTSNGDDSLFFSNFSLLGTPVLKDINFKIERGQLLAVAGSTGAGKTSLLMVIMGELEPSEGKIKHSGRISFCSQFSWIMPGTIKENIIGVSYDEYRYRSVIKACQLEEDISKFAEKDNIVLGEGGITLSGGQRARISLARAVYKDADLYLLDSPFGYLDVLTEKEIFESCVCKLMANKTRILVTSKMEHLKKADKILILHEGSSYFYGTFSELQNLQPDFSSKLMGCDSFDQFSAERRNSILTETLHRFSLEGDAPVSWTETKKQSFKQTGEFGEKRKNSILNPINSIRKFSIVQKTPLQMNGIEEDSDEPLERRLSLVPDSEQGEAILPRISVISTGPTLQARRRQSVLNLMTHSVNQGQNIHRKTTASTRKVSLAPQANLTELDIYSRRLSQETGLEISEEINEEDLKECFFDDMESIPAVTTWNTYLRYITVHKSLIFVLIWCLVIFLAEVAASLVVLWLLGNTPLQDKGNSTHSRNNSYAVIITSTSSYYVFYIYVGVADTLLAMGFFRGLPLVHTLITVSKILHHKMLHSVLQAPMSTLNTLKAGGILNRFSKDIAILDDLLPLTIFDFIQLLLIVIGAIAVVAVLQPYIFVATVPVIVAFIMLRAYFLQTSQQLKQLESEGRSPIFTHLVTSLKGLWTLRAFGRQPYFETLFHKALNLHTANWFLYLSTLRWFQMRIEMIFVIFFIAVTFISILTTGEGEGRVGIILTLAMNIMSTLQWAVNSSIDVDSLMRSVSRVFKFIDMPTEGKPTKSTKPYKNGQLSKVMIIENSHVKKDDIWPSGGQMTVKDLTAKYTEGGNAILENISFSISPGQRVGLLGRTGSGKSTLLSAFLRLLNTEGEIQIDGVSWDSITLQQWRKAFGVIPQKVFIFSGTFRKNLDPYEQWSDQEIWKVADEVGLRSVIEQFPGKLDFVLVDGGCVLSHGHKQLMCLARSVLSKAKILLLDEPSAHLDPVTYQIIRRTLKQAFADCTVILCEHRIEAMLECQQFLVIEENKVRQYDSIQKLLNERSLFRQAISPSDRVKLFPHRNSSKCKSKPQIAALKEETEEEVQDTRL

Compound | % Activation (CFTR ΔF508 mutant) [%] | EC50 (CFTR ΔF508 mutant) [nM] | % Activation (CFTR G551D mutant) [%] | EC50 (CFTR G551D mutant) [nM]
Nc1cc(S(=O)(=O)c2ccc(C(F)(F)F)cc2)cnc1C(=O)N1CC(OC(F)F)C1 [Compound 158, (3-amino-5-{[4-(trifluoromethyl)phenyl]sulfonyl}pyridin-2-yl)[3-(difluoromethoxy)azetidin-1-yl]methanone] | 114.3 | 31.6 | 29.2 | > 10000
Nc1cc(S(=O)(=O)N2CC[C@H](F)C2)cnc1C(=O)NCC(O)C(F)(F)F (stereo partly drawn) [Compound 180, 3-amino-5-{[(3S)-3-fluoropyrrolidin-1-yl]sulfonyl}-N-(3,3,3-trifluoro-2-hydroxypropyl)pyridine-2-carboxamide] | 97.0 | 107 | 30.2 | > 10000
CC1(C)CN(C(=O)c2ncc(S(=O)(=O)c3ccc(C(F)(F)F)cc3)cc2N)C1 [Compound 110, (3-amino-5-{[4-(trifluoromethyl)phenyl]sulfonyl}pyridin-2-yl)(3,3-dimethylazetidin-1-yl)methanone] | 116.0 | 33.5 | 83.6 | 1140
CCOCC(O)CNC(=O)c1ncc(S(=O)(=O)c2ccc(OC(F)(F)F)cc2)cc1N (stereo not shown) [Compound 88, 3-amino-N-(3-ethoxy-2-hydroxypropyl)-5-{[4-(trifluoromethoxy)phenyl]sulfonyl}pyridine-2-carboxamide] | 96.0 | 12.4 | 82.0 | 762
Nc1cc(S(=O)(=O)c2ccc(C(F)(F)F)cc2F)cnc1C(=O)NC[C@H]1CCOC1 [Compound 106, 3-amino-5-{[2-fluoro-4-(trifluoromethyl)phenyl]sulfonyl}-N-[(3R)-tetrahydrofuran-3-ylmethyl]pyridine-2-carboxamide] | 99.0 | 19.5 | 42.4 | > 3330
COC1CCN(S(=O)(=O)c2cnc(C(=O)NCC(O)C(F)(F)F)c(N)c2)CC1 (stereo not shown) [Compound 196, 3-amino-5-[(4-methoxypiperidin-1-yl)sulfonyl]-N-(3,3,3-trifluoro-2-hydroxypropyl)pyridine-2-carboxamide] | 105.4 | 25.7 | 65.4 | 1820
Nc1cc(S(=O)(=O)c2ccc(OC(F)(F)F)cc2)cnc1C(=O)N1CCC(O)C1 (stereo not shown) [Compound 4, (3-amino-5-{[4-(trifluoromethoxy)phenyl]sulfonyl}pyridin-2-yl)(3-hydroxypyrrolidin-1-yl)methanone] | 92.1 | 206 | 43.6 | 5770
CN(C)C(=O)C1CN(C(=O)c2ncc(S(=O)(=O)c3ccc(OC(F)(F)F)cc3)cc2N)C1 [Compound 62, 1-[(3-amino-5-{[4-(trifluoromethoxy)phenyl]sulfonyl}pyridin-2-yl)carbonyl]-N,N-dimethylazetidine-3-carboxamide] | 91.8 | 140 | 49.3 | 1390
Nc1cc(S(=O)(=O)c2ccc(C(F)(F)F)cc2)cnc1C(=O)NCC(O)COCC(F)(F)F (stereo not shown) [Compound 201, 3-amino-N-[2-hydroxy-3-(2,2,2-trifluoroethoxy)propyl]-5-{[4-(trifluoromethyl)phenyl]sulfonyl}pyridine-2-carboxamide] | 104.0 | 14.7 | 59.8 | 523
Nc1cc(S(=O)(=O)N2CCC(F)CC2)cnc1C(=O)NCC(O)C(F)(F)F (stereo not shown) [Compound 195, 3-amino-5-[(4-fluoropiperidin-1-yl)sulfonyl]-N-(3,3,3-trifluoro-2-hydroxypropyl)pyridine-2-carboxamide] | 98.7 | 26.2 | 61.8 | 1250

The remaining lines, values ahead:

% Activation (CFTR ΔF508 mutant) [%] | EC50 (CFTR ΔF508 mutant) [nM] | % Activation (CFTR G551D mutant) [%] | EC50 (CFTR G551D mutant) [nM] | Compound
98.4 | 24.7 | 24.0 |  | CN(Cc1ccc(C(F)(F)F)cc1)S(=O)(=O)c1cnc(C(=O)NCC(O)C(F)(F)F)c(N)c1 (stereo not shown) [Compound 211, 3-amino-5-{methyl[4-(trifluoromethyl)benzyl]sulfamoyl}-N-(3,3,3-trifluoro-2-hydroxypropyl)pyridine-2-carboxamide]
102.3 | 51.3 | 92.7 | 1970 | Nc1cc(S(=O)(=O)c2ccc(C(F)(F)F)cc2)cnc1C(=O)N1CC2(CCCOC2)C1 [Compound 295, (3-amino-5-{[4-(trifluoromethyl)phenyl]sulfonyl}pyridin-2-yl)(6-oxa-2-azaspiro[3.5]non-2-yl)methanone]
98.1 | 137 | 50.6 | 949 | Nc1cc(S(=O)(=O)c2ccc(C(F)(F)F)cc2)cnc1C(=O)NCCOC(F)(F)F [Compound 240, 3-amino-N-[2-(trifluoromethoxy)ethyl]-5-{[4-(trifluoromethyl)phenyl]sulfonyl}pyridine-2-carboxamide]
119.0 | 9.9 | 108.0 | 517 | Nc1cc(S(=O)(=O)c2ccc(C(F)(F)F)cc2)c(C2CC2)nc1C(=O)NCCO [Compound 258, 3-amino-6-cyclopropyl-N-(2-hydroxyethyl)-5-{[4-(trifluoromethyl)phenyl]sulfonyl}pyridine-2-carboxamide]
100.0 | 143 | 23.8 | > 10000 | CC(C)NC(=O)CNC(=O)c1ncc(S(=O)(=O)N2CCC[C@@H]2C)cc1N [Compound 270, 3-amino-5-{[(2S)-2-methylpyrrolidin-1-yl]sulfonyl}-N-[2-oxo-2-(propan-2-ylamino)ethyl]pyridine-2-carboxamide]
109 | 53 | 85 | 518 | NC(=O)c1ncc(S(=O)(=O)c2ccc(OC(F)(F)F)cc2)cc1N [Compound 297, 3-amino-5-{[4-(trifluoromethoxy)phenyl]sulfonyl}pyridine-2-carboxamide]
96.5 | 59.9 | 37.6 |  | Nc1cc(S(=O)(=O)c2ccc(C(F)(F)F)cc2)cnc1C(=O)N[C@@H]1CCC[C@@H]1O [Compound 205, 3-amino-N-[(1R,2S)-2-hydroxycyclopentyl]-5-{[4-(trifluoromethyl)phenyl]sulfonyl}pyridine-2-carboxamide]
96.4 | 49 | 19.0 | > 10000 | Nc1cc(S(=O)(=O)c2ccc(C(F)(F)F)cc2)cnc1C(=O)NCC1CC1 [Compound 223, 3-amino-N-(cyclopropylmethyl)-5-{[4-(trifluoromethyl)phenyl]sulfonyl}pyridine-2-carboxamide]
